Test results: patent US20230174530A1, “N-(PHENYLAMINOCARBONYL) TETRAHYDRO-ISOQUINOLINES AND RELATED COMPOUNDS AS MODULATORS OF GPR65” (PATHIOS THERAPEUTICS LIMITED, priority 2020, published 2023)

Target: T1, human recombinant GPR65 (Homo sapiens, UniProt Q8IYL9)
T1 construct: host or cells: 1321N1 human astrocytoma cells (1321N1-hrGPR65)
Assay: Human GPR65 cAMP HTRF antagonist assay
Type: cell-based
Details: 1321N1-hrGPR65 cells stimulated at assay pH 7.2; suppression of cAMP rise; read-out: hGPR65 IC50
Description: Human GPR65 Cyclic Adenosine Monophosphate (cAMP) Homogeneous Time Resolved Fluorescence (HTRF) Antagonist Assay Procedure
IC50 data was obtained by the following procedure:
1321N1 human astrocytoma cells stably expressing human recombinant GPR65 (1321N1-hrGPR65 cells, EuroscreenFast) were cultured according to the vendor's instructions.
Compounds were tested for their ability to antagonise GPR65, through measuring the concentration of cytoplasmic cAMP following treatment of the cells at a pH of 7.2 to activate GPR65 signalling and addition of the compound to be tested. The extent to which the expected rise in cAMP concentration upon GPR65 activation was suppressed by the added compound is indicative of its potency. The assay was carried out according to EuroscreenFast assay methodology as follows.
On the day of the assay, test compounds were added to 384-well, low volume, white microtiter plates by acoustic dispensing. KRH buffer (5 mM KCl, 1.25 mM MgSO4, 124 mM NaCl, 25 mM HEPES, 13.3 mM Glucose, 1.25 mM KH2PO4 and 1.45 mM CaCl2) was adjusted to pH 6.5, pH 7.6 and pH 8.4 by adding NaOH. 1321N1-hGPR65 cells were rapidly thawed and diluted in KRH, pH 7.6 prior to centrifugation at 300×g for 5 min and resuspension in assay buffer (KRH, pH 7.6, supplemented with 1 mM 3-isobutyl-1-methylxanthine (IBMX) and 200 μM ethylenediaminetetraacetic acid (EDTA)). Cells were added to assay plates at a density of 2,000 cells per well in a volume of 5 μl. Assay plates were briefly centrifuged at 100×g and then incubated at room temperature for 30 min. Cells were stimulated by the addition of 5 μL KRH, pH 6.5, to achieve an assay pH of 7.2, while control wells received 5 μl KRH, pH 8.4 to achieve an assay pH of 7.9. Assay plates were briefly centrifuged at 100×g and then incubated at room temperature for 30 min.
Accumulation of cAMP was detected by cAMP HTRF kit (Cisbio). d2-labeled cAMP and cryptate-labeled anti-cAMP antibody in Lysis and Detection Buffer (Cisbio) were added to assay plates, and the plates were incubated at room temperature for 1 h. HTRF measurements were performed using a Pherastar FSX instrument. Acceptor and donor emission signals were measured at 665 nm and 620 nm, respectively, and HTRF ratios were calculated as signal665 nm/signal620 nm×10^4. Data were normalised to high and low control values and fitted with 4-parameter logistic regression to determine hGPR65 IC50 values for the test compounds, which are shown in Table 1.

T1 sequence (Q8IYL9 whole entry): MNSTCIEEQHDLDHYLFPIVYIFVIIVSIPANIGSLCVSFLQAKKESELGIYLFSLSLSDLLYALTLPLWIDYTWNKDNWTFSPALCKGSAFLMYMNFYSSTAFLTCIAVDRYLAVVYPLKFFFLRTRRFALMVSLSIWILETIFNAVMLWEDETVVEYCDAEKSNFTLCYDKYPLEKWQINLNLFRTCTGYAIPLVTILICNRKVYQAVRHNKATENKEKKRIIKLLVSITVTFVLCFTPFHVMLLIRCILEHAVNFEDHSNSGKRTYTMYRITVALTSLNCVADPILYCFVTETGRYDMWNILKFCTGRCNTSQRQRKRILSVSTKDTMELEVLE

SMILES | IC50
Nc1cc2c(cn1)CCN(C(=O)Nc1ccc(Cl)c(Cl)c1)C2 [Compound 82, 7-Amino-N-(3,4-dichlorophenyl)-3,4-dihydro-2,6-naphthyridine-2(1H)-carboxamide] | < 500 nM
O=C(Nc1ccc(C(F)(F)F)c(Cl)c1)N1CCc2cnc(Cl)cc2C1 [Compound 90, 7-Chloro-N-(3-chloro-4-(trifluoromethyl)phenyl)-3,4-dihydro-2,6-naphthyridine-2(1H)-carboxamide] | 500 to 5000 nM
O=C(Nc1ccc(C(F)(F)F)c(Cl)c1)N1CCc2cc(F)ncc2C1 [Compound 104, N-(3-chloro-4-(trifluoromethyl)phenyl)-6-fluoro-3,4-dihydro-2,7-naphthyridine-2(1H)-carboxamide] | < 500 nM
O=C(Nc1ccc(Cl)c(Cl)c1)N1CCc2[nH]c(=O)ncc2C1 [Compound 88, N-(3,4-Dichlorophenyl)-2-oxo-1,5,7,8-tetrahydropyrido[4,3-d]pyrimidine-6(2H)-carboxamide] | 500 to 5000 nM
COc1ccc2c(c1)CN(C(=O)Nc1ccc(Cl)c(C(F)(F)F)c1)CC2 [Compound 62, N-(4-Chloro-3-(trifluoromethyl)phenyl)-7-methoxy-3,4-dihydroisoquinoline-2(1H)-carboxamide] | > 5000 nM
O=C(Nc1ccc(Cl)c(Cl)c1)N1CCc2nccnc2C1 [Compound 23, N-(3,4-Dichlorophenyl)-7,8-dihydropyrido[3,4-b]pyrazine-6(5H)-carboxamide] | > 5000 nM
COc1ccc2c(c1)CCN(C(=O)Nc1ccc(Cl)c(Cl)c1)C2 [Compound 65, N-(3,4-Dichlorophenyl)-6-methoxy-3,4-dihydroisoquinoline-2(1H)-carboxamide] | > 5000 nM
COC(=O)c1ccc2c(c1)CCN(C(=O)Nc1ccc(Cl)c(Cl)c1)C2 [Compound 114, Methyl 2-((3,4-dichlorophenyl)carbamoyl)-1,2,3,4-tetrahydroisoquinoline-6-carboxylate] | < 500 nM
O=C(Nc1ccc(Cl)c(Cl)c1)N1CCc2oncc2C1 [Compound 80, N-(3,4-Dichlorophenyl)-6,7-dihydroisoxazolo[4,5-c]pyridine-5(4H)-carboxamide] | 500 to 5000 nM
O=C(Nc1ccc(Cl)c(Cl)c1)N1CCc2cc3ncnn3cc2C1 [Compound 111, N-(3,4-Dichlorophenyl)-8,9-dihydro-[1,2,4]triazolo[1,5-b][2,7]naphthyridine-7(6H)-carboxamide] | > 5000 nM
O=C(Nc1ccc(Cl)c(Cl)c1)N1CCc2c[nH]c(=O)cc2C1 [Compound 99, N-(3,4-Dichlorophenyl)-7-oxo-3,4,6,7-tetrahydro-2,6-naphthyridine-2(1H)-carboxamide] | > 5000 nM
O=C(Nc1ccc(C(F)(F)F)c(Cl)c1)N1CCc2c(Cl)cccc2C1 [Compound 57, 5-Chloro-N-(3-chloro-4-(trifluoromethyl)phenyl)-3,4-dihydroisoquinoline-2(1H)-carboxamide] | 500 to 5000 nM
Cc1cccc2c1CCN(C(=O)Nc1ccc(Cl)c(C(F)(F)F)c1)C2 [Compound 59, N-(4-Chloro-3-(trifluoromethyl)phenyl)-5-methyl-3,4-dihydroisoquinoline-2(1H)-carboxamide] | 500 to 5000 nM
COc1cccc2c1CCN(C(=O)Nc1ccc(Cl)c(C(F)(F)F)c1)C2 [Compound 133, N-(4-Chloro-3-(trifluoromethyl)phenyl)-5-methoxy-3,4-dihydroisoquinoline-2(1H)-carboxamide] | 500 to 5000 nM
Nc1cc2c(cn1)CN(C(=O)Nc1ccc(Cl)c(Cl)c1)CC2 [Compound 84, 6-Amino-N-(3,4-dichlorophenyl)-3,4-dihydro-2,7-naphthyridine-2(1H)-carboxamide] | > 5000 nM
O=C(Nc1ccc(Cl)c(Cl)c1)N1CCc2ccc(F)cc2C1 [Compound 31, N-(3,4-Dichlorophenyl)-7-fluoro-3,4-dihydroisoquinoline-2(1H)-carboxamide] | < 500 nM
O=C(Nc1ccc(Cl)c(C(F)(F)F)c1)N1CCc2cc(F)ccc2C1 [Compound 43, N-(4-Chloro-3-(trifluoromethyl)phenyl)-6-fluoro-3,4-dihydroisoquinoline-2(1H)-carboxamide] | < 500 nM
COc1cc2c(cn1)CCN(C(=O)Nc1ccc(Cl)c(Cl)c1)C2 [Compound 105, N-(3,4-Dichlorophenyl)-7-methoxy-3,4-dihydro-2,6-naphthyridine-2(1H)-carboxamide] | > 5000 nM
O=C(Nc1ccc(C(F)(F)F)c(Cl)c1)N1CCc2ccc(Cl)cc2C1 [Compound 30, 7-Chloro-N-(3-chloro-4-(trifluoromethyl)phenyl)-3,4-dihydroisoquinoline-2(1H)-carboxamide] | < 500 nM
N#Cc1cc2c(cn1)CCN(C(=O)Nc1ccc(Cl)c(Cl)c1)C2 [Compound 103, 7-Cyano-N-(3,4-dichlorophenyl)-3,4-dihydro-2,6-naphthyridine-2(1H)-carboxamide] | 500 to 5000 nM
O=C(Nc1ccc(C(F)(F)F)c(Cl)c1)N1CCc2cc(F)ccc2C1 [Compound 44, N-(3-Chloro-4-(trifluoromethyl)phenyl)-6-fluoro-3,4-dihydroisoquinoline-2(1H)-carboxamide] | < 500 nM
CS(=O)(=O)c1ccc2c(c1)CCN(C(=O)Nc1ccc(C(F)(F)F)c(Cl)c1)C2 [Compound 124, N-(3-Chloro-4-(trifluoromethyl)phenyl)-6-(methylsulfonyl)-3,4-dihydroisoquinoline-2(1H)-carboxamide] | > 5000 nM
O=C(Nc1cccc(Cl)c1)N1CCc2ncncc2C1 [Compound 3, N-(3-Chlorophenyl)-7,8-dihydropyrido[4,3-d]pyrimidine-6(5H)-carboxamide] | > 5000 nM
O=C(Nc1ccc(C(F)(F)F)c(Cl)c1)N1CCc2ncncc2C1 [Compound 6, N-(3-Chloro-4-(trifluoromethyl)phenyl)-7,8-dihydropyrido[4,3-d]pyrimidine-6(5H)-carboxamide] | 500 to 5000 nM
O=C(Nc1ccc(Cl)c(Cl)c1)N1CCc2cc3nncn3cc2C1 [Compound 109, N-(3,4-Dichlorophenyl)-8,9-dihydro-[1,2,4]triazolo[4,3-b][2,7]naphthyridine-7(6H)-carboxamide] | < 500 nM
O=C(Nc1ccc(C(F)(F)F)c(Cl)c1)N1CCc2c[n+]([O-])ccc2C1 [Compound 79, 6-((3-Chloro-4-(trifluoromethyl)phenyl)carbamoyl)-5,6,7,8-tetrahydro-2,6-naphthyridine 2-oxide] | < 500 nM
O=C(Nc1ccc(Cl)c(C(F)(F)F)c1)N1CCc2ccc(F)cc2C1 [Compound 32, N-(4-Chloro-3-(trifluoromethyl)phenyl)-7-fluoro-3,4-dihydroisoquinoline-2(1H)-carboxamide] | 500 to 5000 nM
Cc1ccc2c(c1)CN(C(=O)Nc1ccc(C(F)(F)F)c(Cl)c1)CC2 [Compound 35, N-(3-Chloro-4-(trifluoromethyl)phenyl)-7-methyl-3,4-dihydroisoquinoline-2(1H)-carboxamide] | 500 to 5000 nM
O=C(Nc1ccc(C(F)(F)F)c(Cl)c1)N1CCc2cnccc2C1 [Compound 14, N-(3-Chloro-4-(trifluoromethyl)phenyl)-3,4-dihydro-2,6-naphthyridine-2(1H)-carboxamide] | < 500 nM
O=C(Nc1ccc(Cl)c(C(F)(F)F)c1)N1CCc2oncc2C1 [Compound 25, N-(4-Chloro-3-(trifluoromethyl)phenyl)-6,7-dihydroisoxazolo[4,5-c]pyridine-5(4H)-carboxamide] | 500 to 5000 nM
